test system: C3H10T1/2 cells; assay: C3H assay: differentiation of C3H10T1/2 cells by mSHH, measurement of alkaline phosphatase; assay type: cell-based, mouse; conditions: Mus musculus, C3H 10T1/2; C3H10T1/2 cells stimulated with mSHH for 72 hours; alkaline phosphatase activity; read-out: IC50 Ranges

Row | Structure (SMILES) | IC50 [µM]
1 | COc1ccc(C2CCN(S(=O)(=O)C3CN(C(=O)OC(C)(C)C)C3)CC2)nc1 [Compound 47, tert-butyl 3-[4-(5-methoxypyridin-2-yl)piperidin-1-yl]sulfonylaze-tidine-1-carboxylate] | 1 to 10
2 | CC(C)(C)OC(=O)N1CCC(S(=O)(=O)N2CCC(c3ccnc4[nH]ccc34)CC2)CC1 [Compound 7, tert-butyl 4-[4-(1H-pyrrolo[2,3-b]pyridin-4-yl)piperidin-1-yl]sulfonylpiper-idine-1-carboxylate] | 0.1 to 1
3 | Cc1cc(Cl)ccc1C1CCN(S(=O)(=O)C2CN(C(=O)OC(C)(C)C)C2)CC1 [Compound 302, tert-butyl 3-[4-(4-chloro-2-methylphenyl)piperidin-1-yl]sulfonylaze-tidine-1-carboxylate] | 0.1 to 1
4 | CC(C)N(CC(=O)N1CC(S(=O)(=O)N2CCC(c3ccc(C#N)cc3)CC2)C1)C(C)C [Compound 324, 4-[1-[1-[2-[di(propan-2-yl)amino]acetyl]azetidin-3-yl]sulfonylpiper-idin-4-yl]benzonitrile] | 0.01 to 0.1
5 | CC(C)C(CO)NC(=O)N1CCC(S(=O)(=O)N2CCC(c3c[nH]c4ncccc34)CC2)C1 (racemic) [Compound 149, N-(1-hydroxy-3-methylbutan-2-yl)-3-[4-(1H-pyrrolo[2,3-b]pyridin-3-yl)piperidin-1-yl]sulfonylpyrr olidine-1-carboxamide] | 0.01 to 0.1
6 | CN(C(=O)N1CC(S(=O)(=O)N2CCC(c3ccc(F)cc3)CC2)C1)C1CC1 [Compound 340, N-cyclopropyl-3-[4-(4-fluorophenyl)piperidin-1-yl]sulfonyl-N-methylazetidine-1-carboxamide] | 1 to 10
7 | C[C@@H]1CN(C(=O)N2CC(S(=O)(=O)N3CCC(c4coc5cccnc45)CC3)C2)C[C@H](C)O1 [Compound 374, [(2R,6S)-2,6-dimethylmorpholin-4-yl]-[3-(4-furo[3,2-b]pyridin-3-ylpiperidin-1-yl)sulfonylazetidin-1-yl]methanone] | < 0.01
8 | C[C@@H]1CN(C(=O)N2CC(S(=O)(=O)N3CCC(c4c[nH]c5ncccc45)CC3)C2)C[C@@H](C)O1 [Compound 164, [(2R,6R)-2,6-dimethylmorpholin-4-yl]-[3-[4-(1H-pyrrolo[2,3-b]pyridin-3-yl)piperidin-1-yl]sulfonylaze-tidin-1-yl]methanone] | 0.01 to 0.1
9 | CC(C)(C)OC(=O)N1CC(S(=O)(=O)N2CCC(c3cn(S(C)(=O)=O)c4ncccc34)CC2)C1 [Compound 93, tert-Butyl 3-[[4-(1-methylsulfonylpyrrolo[2,3-b]pyridin-3-yl)-1-piperidyl]sulfonyl]azetidine-1-carboxylate] | 1 to 10
10 | Cc1noc(C)c1CNC(=O)N1CC(S(=O)(=O)N2CCC(c3c[nH]c4ncccc34)CC2)C1 [Compound 55, N-[(3,5-dimethyl-1,2-oxazol-4-yl)methyl]-3-[4-(1H-pyrrolo[2,3-b]pyridin-3-yl)piperidin-1-yl]sulfonylaze-tidine-1-carboxamide] | 0.01 to 0.1
11 | CC(C)[C@H](CO)NC(=O)N1CC(S(=O)(=O)N2CCC(c3ccc(Cl)cc3)CC2)C1 [Compound 321, 3-[4-(4-chlorophenyl)piperidin-1-yl]sulfonyl-N-[(2R)-1-hydroxy-3-methylbutan-2-yl]azetidine-1-carboxamide] | 0.01 to 0.1
12 | Cc1ccc(C2CCN(S(=O)(=O)C3CN(C(=O)OC(C)(C)C)C3)CC2)c(C)c1 [Compound 354, tert-butyl 3-[4-(2,4-dimethylphenyl)piperidin-1-yl]sulfonylaze-tidine-1-carboxylate] | 1 to 10
13 | Cc1cccc(F)c1NC(=O)N1CC(S(=O)(=O)N2CCC(c3c[nH]c4ncccc34)CC2)C1 [Compound 387, N-(2-fluoro-6-methylphenyl)-3-[4-(1H-pyrrolo[2,3-b]pyridin-3-yl)piperidin-1-yl]sulfonylaze-tidine-1-carboxamide] | 0.01 to 0.1
14 | Cc1ccc(S(=O)(=O)n2cc(C3=CCN(S(=O)(=O)C4CCN(C(=O)OC(C)(C)C)CC4)CC3)c3cncnc32)cc1 [Compound 235, tert-butyl 4-[[4-[7-(4-methylphenyl)sulfonylpyrrolo[2,3-d]pyrimidin-5-yl]-3,6-dihydro-2H-pyridin-1-yl]sulfonyl] piperidine-1-carboxylate] | 0.1 to 1

Continued, values first:

Row | IC50 [µM] | Structure (SMILES)
15 | 1 to 10 | O=S(=O)(C1CN(c2ccccn2)C1)N1CCC(c2ccncc2)CC1 [Compound 268, 2-[3-(4-pyridin-4-ylpiperidin-1-yl)sulfonylaze-tidin-1-yl]pyridine]
16 | 0.1 to 1 | O=S(=O)(C1CN(c2nc3ccccc3s2)C1)N1CCC(c2ccncc2)CC1 [Compound 337, 2-[3-(4-pyridin-4-ylpiperidin-1-yl)sulfonylaze-tidin-1-yl]-1,3-benzothiazole]
17 | 0.1 to 1 | CC(C)(C)OC(=O)N1CC(S(=O)(=O)N2CCC(c3ccccc3)CC2)C1 [Compound 301, tert-butyl 3-(4-phenylpiperidin-1-yl)sulfonylaze-tidine-1-carboxylate]
18 | 0.1 to 1 | Cc1ccnc(N2CC(S(=O)(=O)N3CCC(c4c[nH]c5ncccc45)CC3)C2)c1C#N [Compound 187, 4-methyl-2-[3-[4-(1H-pyrrolo[2,3-b]pyridin-3-yl)piperidin-1-yl]sulfonylaze-tidin-1-yl]pyridine-3-carbonitrile]
19 | 0.1 to 1 | COC(=O)c1coc(N2CC(S(=O)(=O)N3CCC(c4c[nH]c5ncccc45)CC3)C2)n1 [Compound 246, methyl 2-[3-[4-(1H-pyrrolo[2,3-b]pyridin-3-yl)piperidin-1-yl]sulfonylaze-tidin-1-yl]-1,3-oxazole-4-carboxylate]
20 | 0.1 to 1 | CN(C(=O)N1CC(S(=O)(=O)N2CCC(c3ccncc3)CC2)C1)C(C)(C)C [Compound 31, N-tert-butyl-N-methyl-3-(4-pyridin-4-ylpiperidin-1-yl)sulfonylaze-tidine-1-carboxamide]
21 | 1 to 10 | O=C(NC1CCC1)N1CCC(S(=O)(=O)N2CCC(c3ccncc3)CC2)CC1 [Compound 104, N-cyclobutyl-4-(4-pyridin-4-ylpiperidin-1-yl)sulfonylpiper-idine-1-carboxamide]
22 | 0.1 to 1 | O=S(=O)(C1CN(c2ncccc2C(F)(F)F)C1)N1CCC(c2c[nH]c3ncccc23)CC1 [Compound 186, 3-[1-[1-[3-(trifluoromethyl)pyridin-2-yl]azetidin-3-yl]sulfonylpiper-idin-4-yl]-1H-pyrrolo [2,3-b]pyridine]
23 | 0.1 to 1 | O=C(NCc1ccco1)N1CC(S(=O)(=O)N2CCC(c3c[nH]c4ncccc34)CC2)C1 [Compound 99, N-(furan-2-ylmethyl)-3-[4-(1H-pyrrolo[2,3-b]pyridin-3-yl)piperidin-1-yl]sulfonylaze-tidine-1-carboxamide]
24 | 0.1 to 1 | COC(=O)c1csc(N2CC(S(=O)(=O)N3CCC(c4c[nH]c5ncccc45)CC3)C2)n1 [Compound 241, methyl 2-[3-[4-(1H-pyrrolo[2,3-b]pyridin-3-yl)piperidin-1-yl]sulfonylaze-tidin-1-yl]-1,3-thiazole-4-carboxylate]
25 | 0.1 to 1 | O=S(=O)(C1CN(Cc2cccs2)C1)N1CCC(c2c[nH]c3ncccc23)CC1 [Compound 68, 3-[1-[1-(thiophen-2-ylmethyl)azetidin-3-yl]sulfonylpiper-idin-4-yl]-1H-pyrrolo[2,3-b]pyridine]
26 | 0.1 to 1 | COC1CCC(OC(=O)N2CC(S(=O)(=O)N3CCC(c4ccncc4)CC3)C2)CC1 (centres unmarked) [Compound 28, (4-methoxycyclo-hexyl) 3-(4-pyridin-4-9-ylpiperidin-1-yl)sulfonylaze-tidine-1-carboxylate]

— patent US10961238B2, “Modulators of hedgehog (Hh) signaling pathway” (E-THERAPEUTICS PLC, priority 2016, dated 2021)
